The subject of series [1] is NFκB transcription factor binding sequence (duplex oligonucleotide). The series is described as follows: DNA adduct formation by HPLC. Particulars: 4:1 molar ratio ligand:oligonucleotide, room temperature. How it is done: Interaction of C8-linked PDD monomers with duplex transcription factor consensus sequence was studied with an HPLC assay utilizing a X-bridge MS C18 2.5 μM OST column (2.3×50 mm) and a gradient of 40% acetonitrile/water and 100 mM TEAB ([…])/water as mobile phase with a flow rate of 0.5 mL/min and UV detection at 254 nm. A 4:1 molar ratio of ligand:oligonucleotide was used, with each single-stranded oligonucleotide dissolved in 1 M ammonium acetate to form stock solutions of 1 mM. The oligonucleotides were initially annealed by heating their 1 mM solutions to 70° C. for 10 mins followed by gradual cooling over 8 hours and storage overnight at −20° C. Working solutions of oligonucleotides of 25 μM were then prepared by diluting the annealed stock solutions with 100 mM ammonium acetate. The ligands were dissolved in DMSO to form a stock solution of 10 mM which was stored at −20° C. for no longer than four months. Working solutions of the drug of 100 μM were prepared by diluting the stock solution with 100 mM ammonium acetate. The working solutions of the ligands were added to the working solution the oligonucleotides at RT, and the mixture incubated for different time intervals at room temperature.

In series [2] the test system is NFκB Transcription Factor duplex DNA sequence. Put plainly: FRET DNA melting assay with transcription factor duplex DNA. The following applies: 1 μM ligand concentration; 24 hours incubation. It is filed as binding. Here is the method: (§1) Oligonucleotide sequences used for the FRET assays were purchased from Eurogentec, Southampton, UK: TAMRA (6-carboxytetramethylrhodamine) and FAM (6-carboxyfluorescein) are acceptor and donor fluorophores, respectively. From 20 μM stock solutions, 400 nM solutions in FRET buffer (optimized as 50 mM potassium, 50 mM cacodylate, pH 7.4) were prepared prior to use. The oligonucleotides were annealed through heating the samples to 90° C. for 10 mins followed by cooling to room temperature and storing at this temperature for 5 h. Dilutions from the initial 5 mM DMSO stock solution were performed using FRET buffer. Annealed DNA (50 μL) and sample solution (50 μL) were added to each well of a 96-well plate (MJ Research, Waltham, Mass.), and processed in a DNA Engine Opticon (MJ Research). Fluorescence readings were taken at intervals of 0.5° C. over the range 30-100° C., with a constant temperature maintained for 30 seconds prior to each reading. Incident radiation of 450-495 nm was used, with detection at 515-545 nm. The raw data were imported into the program Origin (Version 7.0, OringinLab Corp.), and the graphs were smoothed using a 10-point running average, and then normalized. Determination of melting temperatures was based on values at the maxima of the first derivative of the smoothed melting curves using a script. The difference between the melting temperature of each sample and that of the blank (ΔTm) was used for comparative purposes.

Series [3] deals with AP-1 Transcription Factor duplex DNA sequence. The description is as above. Format: binding. The following applies: 1 μM ligand concentration; 24 hours incubation. Here is the method: as §1
The subject of series [4] is MDA MB 231 (Triple negative breast cancer cell line). Put plainly: MTT cytotoxicity assay of C8-linked PDD monomers. It is filed as cell-based. The following applies: Homo sapiens, 72 hours exposure. Here is the method: (§2) MDA MB231 (triple negative human breast cancer) was obtained from the American Type Culture Collection. The cell-line was maintained in monolayer culture in 75 cm^2 flasks (TPP, Switzerland) under a humidified 5% CO2 atmosphere at 37° C. The MDA MB231 cell line was maintained in high glucose DMEM (4.5 g/l; Invitrogen), foetal bovine serum (10%, Biosera UK), non-essential amino acids (ix; Invitrogen), L-glutamine (2 mM; Invitrogen) and Penicillin-Streptomycin (1% v/v, Invitrogen). The HeLa cell line was maintained in Dulbecco's Modified Eagles Media (DMEM; Invitrogen) supplemented with foetal bovine serum (10% v/v; Invitrogen), L-glutamine (2 mM; Invitrogen), non-essential amino acids (lx; Invitrogen) and Penicillin-Streptomycin (1% v/v, Invitrogen). For passaging, cells were washed with PBS (GIBCO 14040, Invitrogen, UK), incubated with trypsine (GIBCO 25300, Invitrogen, UK), and re-seeded into fresh medium. For seeding, cells were counted using a Neubauer haemocytometer (Assistant, Germany) by microscopy (Nikon, USA) on a non-adherent suspension of cells that were washed in PBS, trypsinised, centrifuged at 8° C. at 8000 rpm for 5 min and re-suspended in fresh medium.
(§3) The cells were grown in normal cell culture conditions at 37° C. under a 5% CO2 humidified atmosphere using appropriate medium. The cell count was adjusted to 10^5 cells/ml and 5,000-20,000 cells were added per well depending on the cell line. The cells were incubated for 24 hours and 1 μl of the appropriate inhibitor concentrations were added to the wells in triplicates. After 72 h of continuous exposure to each compound, the cytotoxicity was determined using the 3-(4,5-Dimethylthiazol-2-yl)-2,5-diphenyltetrazolium bromide (MTT) (Lancaster Synthesis Ltd, UK) colorimetric assay.^[34 Absorbance was quantified by spectrophotometry at λ=570 nm (Envision Plate Reader, PerkinElmer, USA). IC50 values were calculated by a dose-response analysis using the GraphPad Prism® software.
(In general: Tetrazolium assays rely on reduction of a dye to a coloured formazan, in cell work by metabolically active cells.)

Series [5] deals with HeLa (Cervical cancer cell line). Put plainly: MTT cytotoxicity assay of C8-linked PDD monomers. It is filed as cell-based. The following applies: Homo sapiens, 72 hours exposure. How it is done:
as §2, §3

The test system of series [6] is fluorescently labelled DNA duplex 5′-AAAAAAAGAAATTTAAA-3′. The series is described as follows: FRET DNA melting of fluorescently labelled duplex. Format: binding. Particulars: fragments of 41, FIG. 12B. The text has this: FRET DNA melting studies were undertaken on a fluorescently labelled duplex DNA sequence reacted with 41 and fragmented forms of the molecule (i.e, using intermediates 106, […] and 148). The sequence (FIG. 10) was designed to provide additional evidence that 41 can effectively stabilise a particular DNA sequence derived through the Footprinting studies (i.e., XGXWWWW where X represents any base, G represents guanine and W indicates adenine or thymine). […] The labels were fluorescein (F) and dabcyl (Q).
Oligonucleotides were obtained from ATDbio (Southampton, UK) in lyophilised form. They were labelled with a fluorophore molecule (F=fluorescein) at the 5′-end and a quencher molecule (Q=dabcyl) at the 3′-end of the complementary strand. Each oligonucleotide was dissolved in distilled H2O to form stock solutions of 100 μM. Working solutions of 5 μM were prepared by diluting the stock solution with distilled H2O.
The following buffers were used: 250 mM phosphate buffer pH 7.4 (consisting of sodium dihydrogen phosphate and sodium phosphate diluted in distilled H2O) and 5 M sodium chloride buffer. All buffers and distilled H2O were filtered through a 0.2 VIM filter prior to use.
For the FRET experiments stock solutions of 41, 106, 107 and 148 were prepared by dissolving the compounds in DMSO to give a concentration of 10 mM. From this stock solution, working solutions of the desired concentration were prepared by diluting the stock solution with distilled H2O.
The reaction mixture was comprised of 4 μL of 250 mM phosphate buffer (final concentration of 50 mM), 4 μL flourophor and 4 μL quencher molecule of the appropriate oligonucleotide for a final concentration of 0.2 μM, 4 μL 5 M sodium chloride (final concentration of 1 M NaCl), and 4 μL of distilled H2O. […] This mixture was analysed without prior annealing.
Fluorescence melting profiles were measured using a Roche LightCycler using a total reaction volume of 20 μL. […] Annealing steps and melting steps were all recorded and changes in fluorescence were measured at 520 nm. […]

For series [7] the following is noted: in vivo; cited from earlier work.

This is an account of results in patent US20210206763A1, “Anti-Proliferative Agents” (FEMTOGENIX LIMITED, priority 2015, published 2021).

For orientation: IC50 means the concentration that gives 50% inhibition. A higher IC50 goes with weaker potency. Regarding `COC(=O)c1cc2cc(NC(=O)c3cc(NC(=O)CCCOc4cc5c(cc4OC)C(=O)N4CCCC[C@H]4C=N5)cn3C)ccc2s1` [Compound 13, Methyl (S)-5-(4-(4-((2-methoxy-12-oxo-6a,7,8,9,10,12-hexa-hydrobenzo[e]pyrido[1,2-a][1,4]diazepin-3-yl)oxy)butanamido)-1-methyl-1H-pyrrole-2-carboxamido)benzo[b]thiophene-2-carboxylate], in series [1], the “DNA adduct formation (HPLC chromatogram)” value was “DNA adduct formation”. Also, in series [2], the ΔTm NFκB (1st transition) is 12 °C and the ΔTm NFκB (2ND transition) turned out to be 23 °C. In series [3], the ΔTm AP-1 (1st transition) stood at 11 °C and the ΔTm AP-1 (2ND transition) is 19 °C. In series [4], this compound gave an IC50 of 64000 ± 9600 pM. The compound also registered a half-inhibitory concentration (IC50) in series [5] of 600 ± 400 pM.
In the case of `COC(=O)c1cc2cc(NC(=O)c3nc(NC(=O)CCCOc4cc5c(cc4OC)C(=O)N4CCCC[C@H]4C=N5)cn3C)ccc2s1` [Compound 17, Methyl (S)-5-(4-(4-((2-methoxy-12-oxo-6a,7,8,9,10,12-hexa-hydrobenzo[e]pyrido[1,2-a][1,4]diazepin-3-yl)oxy)butanamido)-1-methyl-1H-imidazole-2-carboxamido)benzo[b]thiophene-2-carboxylate], in series [1], the “DNA adduct formation (HPLC chromatogram)” value is listed as “DNA adduct formation”. In addition, in series [2], the ΔTm NFκB (1st transition) amounted to 11 °C and the ΔTm NFκB (2ND transition) was 26 °C. Moreover, in series [3], the ΔTm AP-1 (1st transition) worked out at 13 °C and the ΔTm AP-1 (2ND transition) stood at 18 °C. Besides, the IC50 in series [4] was found to be 21000 ± 1800 pM. The same compound yielded a concentration for half-maximal inhibition (IC50) in series [5] of 1200 ± 800 pM.
For `COC(=O)c1cc(-c2ccc(NC(=O)c3nc(NC(=O)CCCOc4cc5c(cc4OC)C(=O)N4CCCC[C@H]4C=N5)cn3C)cc2)cn1C` [Compound 20, Methyl (S)-4-(4-(4-(4-((2-methoxy-12-oxo-6a,7,8,9,10,12-hexahydrobenzo[e]pyrido[1,2-a][1,4]diazepin-3-yl)oxy)butanamido)-1-methyl-1H-imidazole-2-carboxamido)phenyl)-1-methyl-1H-pyrrole-2-carboxylate], the “DNA adduct formation (HPLC chromatogram)” value in series [1] was “DNA adduct formation”. Further, in series [2], the ΔTm NFκB (1st transition) was 9 °C and the ΔTm NFκB (2ND transition) was 12 °C. For the same compound, in series [3], the ΔTm AP-1 (1st transition) was 8 °C and the ΔTm AP-1 (2ND transition) came to 13 °C. Further, 300 ± 220 pM corresponded to half-maximal inhibition in series [4] (IC50). The compound further gave an IC50 in series [5] of 140 ± 90 pM.
For the compound `COC(=O)c1cc(-c2ccc(NC(=O)c3cc(NC(=O)CCCOc4cc5c(cc4OC)C(=O)N4CCCC[C@H]4C=N5)cn3C)cc2)cn1C` [Compound 24, Methyl (S)-4-(4-(4-(4-((2-methoxy-12-oxo-6a,7,8,9,10,12-hexahydrobenzo[e]pyrido[1,2-a][1,4]diazepin-3-yl)oxy)butanamido)-1-methyl-1H-pyrrole-2-carboxamido)phenyl)-1-methyl-1H-pyrrole-2-carboxylate], the “DNA adduct formation (HPLC chromatogram)” value in series [1] was “DNA adduct formation”. In addition, in series [2], the ΔTm NFκB (1st transition) was found to be 10 °C and the ΔTm NFκB (2ND transition) worked out at 14 °C. Also, in series [3], the ΔTm AP-1 (1st transition) is 9 °C and the ΔTm AP-1 (2ND transition) turned out to be 15 °C. The same compound gave a 50% inhibitory concentration (IC50) in series [4] of 800 ± 660 pM. Further, in series [5], the concentration for half-maximal inhibition (IC50) stood at 1000 ± 120 pM.
For the compound `COc1cc2c(cc1O)N=C[C@@H]1CCCCN1C2=O` [Compound 106, (S)-3-Hydroxy-2-methoxy-7,8,9,10-tetrahydrobenzo[e]pyrido[1,2-a][1,4]diazepin-12(6aH)-one], the “DNA stabilisation (FRET melting)” value in series [6] is reported as “little DNA stabilisation”.
For the compound `COc1cc2c(cc1OCCCC(=O)O)N=C[C@@H]1CCCCN1C2=O` [Compound 107, (S)-4-((2-Methoxy-12-oxo-6a,7,8,9,10,12-hexahydrobenzo[e]pyrido[1,2-a][1,4]diazepin-3-yl)oxy)butanoic acid], in series [6], the “DNA stabilisation (FRET melting)” value is “little DNA stabilisation”.
On the same count and under the same terms, to `Cn1cc(N)cc1C(=O)Nc1ccc(-c2cc(C(=O)Nc3ccc(N)cc3)n(C)c2)cc1` [Compound 148, 4-Amino-N-(4-(5-((4-aminophenyl)carbamoyl)-1-methyl-1H-pyrrol-3-yl)phenyl)-1-methyl-1H-pyrrole-2-carboxamide] belongs “little DNA stabilisation”.
`C=C1C[C@H]2C=Nc3cc(OCCCOc4cc5c(cc4OC)C(=O)N4CC(=C)C[C@H]4C=N5)c(OC)cc3C(=O)N2C1` [SJG-136]: the “adverse effects in Phase I clinical evaluation” value in series [7] was “lower-limb edema and fatigue”.
